Experimental data reported in the NIST ThermoML archive (doi:10.1021/je900974u).

Tests used:
[1] = molar heat capacity at constant pressure; settings: 101.33 kPa, Liquid, Vacuum adiabatic calorimetry
[2] = for mass density: 101.33 kPa, Liquid, Pycnometric method; for Triple point temperature: Crystal
[3] = Molar enthalpy of transition or fusion; settings: Crystal; Adiabatic calorimetry

CCOS(=O)(=O)[O-].CCn1cc[n+](C)c1 [1-ethyl-3-methylimidazolium ethyl sulfate]
[1]
Settings	molar heat capacity at constant pressure [J/K/mol]
191.13 K	354.4
193.05 K	354.6
194.98 K	354.9
196.91 K	355.1
198.84 K	355.3
200.77 K	355.7
202.71 K	355.9
204.64 K	356.3
206.57 K	356.6
208.5 K	356.9
210.44 K	357.2
212.37 K	357.5
214.3 K	357.9
216.24 K	358.3
218.18 K	358.7
220.11 K	359.2
222.05 K	359.6
223.98 K	360.1
225.92 K	360.4
227.86 K	360.9
229.8 K	361.4
231.74 K	362.1
233.68 K	362.5
235.62 K	363
237.56 K	363.5
239.5 K	364
241.43 K	364.6
243.37 K	365.1
245.32 K	365.6
247.26 K	366.2
249.2 K	366.8
251.14 K	367.4
253.08 K	367.9
255.02 K	368.5
256.96 K	369.1
258.9 K	369.9
260.85 K	370.3
262.79 K	371
264.73 K	371.7
266.67 K	372.1
268.62 K	372.7
270.55 K	373.4
272.5 K	374.1
274.44 K	374.8
276.38 K	375.1
278.32 K	375.6
280.25 K	376.5
282.2 K	377
284.14 K	377.6
286.08 K	378.2
288.03 K	378.7
289.97 K	379.4
291.91 K	380.2
293.85 K	381
295.79 K	381.9
297.74 K	382.6
299.68 K	383.5
301.62 K	384.2
303.56 K	385
305.51 K	385.9
307.45 K	386.7
309.39 K	387.5
311.33 K	388.6
313.28 K	389.5
315.22 K	390.4
317.16 K	391.4
319.11 K	392.2
321.05 K	393.2
322.99 K	394
324.93 K	395
326.88 K	395.9
328.82 K	396.9
330.77 K	397.7
332.71 K	398.5
334.66 K	399.7
336.6 K	400.5
338.54 K	401.4
340.49 K	402.7
342.43 K	403.5
344.38 K	404.4
346.32 K	405.7
348.27 K	406.7
350.21 K	407.8
352.15 K	408.8
354.1 K	409.7
356.04 K	410.8
357.98 K	411.9
359.92 K	412.8
361.86 K	413.9
363.8 K	414.9
365.75 K	415.9
367.69 K	416.8

CCC[n+]1ccn(C)c1.[Br-] [1-methyl-3-propylimidazolium bromide]
Settings	mass density [kg/m3]	molar heat capacity at constant pressure [J/K/mol]
[1], 222.57 K	–	260
[1], 224.61 K	–	260.5
[1], 226.66 K	–	260.8
[1], 228.71 K	–	261.3
[1], 230.76 K	–	261.7
[1], 232.81 K	–	262.1
[1], 234.85 K	–	262.7
[1], 236.9 K	–	263.1
[1], 238.95 K	–	263.5
[1], 241 K	–	264
[1], 243.05 K	–	264.4
[1], 245.1 K	–	264.9
[1], 247.15 K	–	265.4
[1], 249.2 K	–	266
[1], 251.25 K	–	266.5
[1], 253.31 K	–	267.1
[1], 255.36 K	–	267.6
[1], 257.41 K	–	268.2
[1], 259.46 K	–	268.8
[1], 261.51 K	–	269.5
[1], 263.56 K	–	270
[1], 265.62 K	–	270.6
[1], 267.67 K	–	271.2
[1], 269.72 K	–	271.8
[1], 271.77 K	–	272.5
[1], 273.82 K	–	273.2
[1], 275.87 K	–	273.8
[1], 277.92 K	–	274.5
[1], 279.98 K	–	275.1
[1], 282.03 K	–	275.8
[1], 284.08 K	–	276.4
[1], 286.13 K	–	277
[1], 288.18 K	–	277.8
[1], 290.23 K	–	278.4
[1], 292.28 K	–	279.1
[1], 294.33 K	–	279.7
[1], 296.39 K	–	280.4
[1], 298.44 K	–	281
[1], 300.49 K	–	281.7
[1], 302.54 K	–	282.4
[1], 304.59 K	–	283
[1], 306.64 K	–	283.7
[1], 308.7 K	–	284.4
[1], 310.75 K	–	285
[1], 312.8 K	–	285.7
[1], 314.85 K	–	286.4
[1], 316.91 K	–	287.1
[1], 318.96 K	–	287.7
[1], 321.01 K	–	288.5
[1], 323.07 K	–	289.2
[1], 325.12 K	–	289.8
[1], 327.18 K	–	290.6
[1], 329.23 K	–	291.4
[1], 331.28 K	–	292.1
[1], 333.34 K	–	292.9
[1], 335.39 K	–	293.6
[1], 337.45 K	–	294.3
[1], 339.5 K	–	295.1
[1], 341.56 K	–	295.9
[1], 343.61 K	–	296.7
[1], 345.67 K	–	297.3
[1], 347.73 K	–	298.2
[1], 349.78 K	–	299.2
[1], 351.84 K	–	299.9
[1], 353.9 K	–	300.7
[1], 355.95 K	–	301.4
[1], 358.01 K	–	302.2
[1], 360.06 K	–	303.1
[1], 362.12 K	–	303.8
[1], 364.17 K	–	304.6
[1], 366.23 K	–	305.4
[1], 368.28 K	–	306.3
[2], 302.71 K	1355.9	–
[2], 307.7 K	1352.4	–
[2], 312.7 K	1348.9	–
[2], 317.71 K	1345.4	–
[2], 322.7 K	1341.9	–
[2], 327.7 K	1338.5	–
[2], 332.7 K	1335	–
[2], 337.69 K	1331.6	–
[2], 342.68 K	1328.2	–
[2], 347.68 K	1324.9	–
[2], 352.67 K	1321.6	–
[2], 357.67 K	1318.3	–

Settings	Molar enthalpy of transition or fusion [kcal/mol]	Triple point temperature [K]
[2]	–	309.56
[3]	4.589	–

CCCCCCCC[n+]1ccn(C)c1.F[B-](F)(F)F [1-methyl-3-octylimidazolium tetrafluoroborate]
Settings	Molar enthalpy of transition or fusion [kcal/mol]	Triple point temperature [K]
[2]	–	245.75
[3]	3.513	–

[1]
Settings	molar heat capacity at constant pressure [J/K/mol]
195.88 K	466.3
197.4 K	465.8
198.93 K	465.5
200.46 K	464.9
202.1 K	464.6
203.86 K	464.1
205.61 K	463.8
207.37 K	463.5
209.14 K	463.2
210.91 K	463.2
212.69 K	463.2
214.47 K	463.2
216.25 K	463.5
218.04 K	463.5
218.59 K	463.5
219.83 K	463.8
220.61 K	463.8
221.62 K	464.1
222.57 K	464.1
223.42 K	464.4
224.52 K	464.6
225.22 K	464.6
226.48 K	464.9
227.02 K	464.9
228.43 K	465.5
228.83 K	465.5
230.39 K	466.1
230.63 K	466.3
232.35 K	466.3
234.3 K	466.6
236.26 K	467.5
238.22 K	468
240.18 K	468.6
242.14 K	469.4
244.1 K	470.3
246.06 K	470.8
247.53 K	471.7
248.02 K	471.7
249.36 K	472.5
249.99 K	472.5
251.18 K	473.1
251.95 K	473.4
253 K	473.7
253.91 K	474.2
254.83 K	474.5
255.87 K	475.1
256.65 K	475.4
257.83 K	476.2
258.48 K	476.2
260.3 K	477.3
262.13 K	478.2
263.95 K	479
265.78 K	480.1
267.6 K	481
269.43 K	482.1
271.26 K	483
273.08 K	483.8
274.91 K	484.6
276.74 K	486.1
278.57 K	486.9
280.39 K	488
282.22 K	488.9
284.05 K	490
285.87 K	490.8
287.7 K	492
289.53 K	493.1
291.35 K	494.2
293.18 K	495.1
295 K	496.2
296.83 K	497.3
298.65 K	498.2
300.48 K	499.3
302.36 K	500.4
304.29 K	501.6
306.22 K	502.7
308.16 K	503.8
310.09 K	504.9
312.02 K	505.8
313.95 K	507.2
315.89 K	508.3
317.82 K	509.4
319.75 K	510.6
321.68 K	512
323.62 K	513.1
325.55 K	514.2
327.48 K	515.1
329.41 K	516.5
331.34 K	517.9
333.27 K	519.3
335.19 K	520.4
337.12 K	521.8
339.05 K	523
340.97 K	524.4
342.9 K	525.5
344.82 K	526.6
346.75 K	528
348.68 K	529.5
350.6 K	530.9
352.53 K	532.3
354.45 K	533.4
356.38 K	534.8
358.3 K	535.9
360.22 K	537.3
362.14 K	539
364.06 K	539.9
365.98 K	541.3
367.89 K	542.7
